Reference: PMC6057649, “Development of NanoLuc-PEST expressing Leishmania mexicana as a new drug discovery tool for axenic- and intramacrophage-based assays” (PLoS Neglected Tropical Diseases, 2018)

System: NanoLuc-PEST expressing L. mexicana axenic amastigotes
Assay: microbe, parasite or virus in culture
Assay type: cell-based
Conditions: for Relative Bioluminescence (%) / viability at 2 µM / viability at 10 µM: 72 hours, relative to DMSO only control, n = 4; for EC50: read-out: EC50, Axenic Amastigotes; for viability at 2 µM / viability at 10 µM: Leishmania mexicana, read-out: Relative Bioluminescence (%)
[1] = hit compounds from the axenic amastigote screen, S3 Table

## CC1(O)CC(c2nc(-c3ccc4ccc(-c5ccccc5)nc4c3)c3c(N)nccn23)C1 (stereo not drawn) [MMV676605]
2 µM compound
  Relative Bioluminescence (%): 81.06%
10 µM compound
  Relative Bioluminescence (%): 84.63%

## Cn1c(=O)c2c(S(C)(=O)=O)snc2n(C)c1=O [MMV687251]
2 µM compound
  Relative Bioluminescence (%): -4.37%
10 µM compound
  Relative Bioluminescence (%): -0.24%
[1]
  EC50: 480 nM

## COC(=O)Nc1nc2ccc(C(=O)c3ccccc3)cc2[nH]1 [MMV003152, Mebendazole, reference compound]
2 µM compound
  viability at 2 µM: 0.9%
10 µM compound
  viability at 10 µM: -0.49%
[1]
  EC50, Axenic Amastigotes: could not be resolved

## CCc1ccc(C(NCc2nc(N)nc(N(C)C)n2)C(C)C)cc1 (stereo not drawn) [MMV1019989]
2 µM compound
  Relative Bioluminescence (%): 59.90%
10 µM compound
  Relative Bioluminescence (%): 45.92%

## Cc1cccc(Cn2ccc(NC(=O)c3ccc4c(c3)OCO4)n2)c1 [MMV676386]
2 µM compound
  Relative Bioluminescence (%): 127.03%
10 µM compound
  Relative Bioluminescence (%): 120.21%

## O=C(Nc1ccc(C(F)(F)F)c(C(F)(F)F)c1)c1cc(Cl)ccc1O [MMV687807]
2 µM compound
  Relative Bioluminescence (%): 0.88%
10 µM compound
  Relative Bioluminescence (%): 0.53%
[1]
  EC50: 250 nM

## COc1ccc(CCN2CCC(NCc3cccc(N(C)C)c3)CC2)cc1 [MMV011511]
2 µM compound
  Relative Bioluminescence (%): 78.49%
10 µM compound
  Relative Bioluminescence (%): 88.55%

## Cc1cc(NCC(C)C)c2[nH]nc(-c3ccccc3)c2n1 [MMV021375]
2 µM compound
  Relative Bioluminescence (%): 68.90%
10 µM compound
  Relative Bioluminescence (%): 58.94%

## C[C@H](C(N)=O)N1CCCC[C@H]1c1ccc(OCc2cccc(F)c2)cc1 [MMV676269]
2 µM compound
  Relative Bioluminescence (%): 85.78%
10 µM compound
  Relative Bioluminescence (%): 76.17%

## CCOC(=O)c1noc(N)c1-c1ccccc1 [MMV1236379]
2 µM compound
  Relative Bioluminescence (%): 77.18%
10 µM compound
  Relative Bioluminescence (%): 52.39%

## Cc1ccccc1CN1CCC(O)(c2ccc(Cl)c(C(F)(F)F)c2)CC1 [MMV688846]
2 µM compound
  Relative Bioluminescence (%): 63.77%
10 µM compound
  Relative Bioluminescence (%): 60.58%

## COc1ccc(OC)c(NCc2ccc3nc(N)nc(N)c3c2Cl)c1 [MMV675968]
2 µM compound
  Relative Bioluminescence (%): 100.09%
10 µM compound
  Relative Bioluminescence (%): 86.04%

## O=C(NCCN1CCCC1)c1cc(NCCN2CCOCC2)nc2ccc(Cl)cc12 [MMV634140]
2 µM compound
  Relative Bioluminescence (%): 112.61%
10 µM compound
  Relative Bioluminescence (%): 73.96%

## CC1CCCCN1C(=O)NCCc1coc(-c2ccc(F)cc2)n1 (stereo not drawn) [MMV688797]
2 µM compound
  Relative Bioluminescence (%): 76.99%
10 µM compound
  Relative Bioluminescence (%): 71.92%

## CC1CCCN(C(=O)C(C)Nc2cc(Cl)ccc2N2CCOCC2)C1 (stereo not drawn) [MMV020388]
2 µM compound
  Relative Bioluminescence (%): 121.02%
10 µM compound
  Relative Bioluminescence (%): 143.84%

## O=C(c1n[nH]c2c1CCCC2)N1CCN(Cc2ccc3c(c2)OCO3)CC1 [MMV676389]
2 µM compound
  Relative Bioluminescence (%): 67.21%
10 µM compound
  Relative Bioluminescence (%): 71.87%

## O=C1N(Cc2cc3ccccc3s2)CC2CN(Cc3ccccc3)CCN12 (stereo not drawn) [MMV084603]
2 µM compound
  Relative Bioluminescence (%): 70.21%
10 µM compound
  Relative Bioluminescence (%): 61.10%

## O=C(Nc1ccnc(-c2cccnc2)n1)c1cc(C(F)(F)F)cc(C(F)(F)F)c1 [MMV019838]
2 µM compound
  Relative Bioluminescence (%): 125.18%
10 µM compound
  Relative Bioluminescence (%): 86.78%

## O=C(Nc1nc(-c2ccccn2)cs1)C1CC1c1ccccc1F (stereo not drawn) [MMV1028806]
2 µM compound
  Relative Bioluminescence (%): 58.01%
10 µM compound
  Relative Bioluminescence (%): -0.60%

## c1ccc(-c2cc(N3CCCCC3)c3ccccc3n2)nc1 [MMV560185]
2 µM compound
  Relative Bioluminescence (%): 64.27%
10 µM compound
  Relative Bioluminescence (%): 94.77%

## Nc1nc2cc(-c3cncc(Oc4ccc(F)cc4)c3)ccc2[nH]1 [MMV687248]
2 µM compound
  Relative Bioluminescence (%): 81.54%
10 µM compound
  Relative Bioluminescence (%): 88.99%

## NCC(c1cccs1)S(=O)(=O)c1ccccc1 (stereo not drawn) [MMV688557]
2 µM compound
  Relative Bioluminescence (%): 71.96%
10 µM compound
  Relative Bioluminescence (%): 58.46%

## N=C(N)c1ccc(-c2cc(-c3ccccc3)on2)cc1 [MMV688514]
2 µM compound
  Relative Bioluminescence (%): 40.80%
10 µM compound
  Relative Bioluminescence (%): 34.58%

## COc1ccc(N(CCc2cccc(C)n2)C(C)=O)cc1 [MMV675995]
2 µM compound
  Relative Bioluminescence (%): 51.88%
10 µM compound
  Relative Bioluminescence (%): 31.11%

## COc1cccc(-n2nnnc2S(C)(=O)=O)c1 [MMV272144]
2 µM compound
  Relative Bioluminescence (%): 2.64%
10 µM compound
  Relative Bioluminescence (%): 0.19%
[1]
  EC50: 640 nM

## COc1ccc2nc(C)cc(OCC(=O)Nc3ccccc3OC)c2c1 [MMV687188]
2 µM compound
  Relative Bioluminescence (%): 75.17%
10 µM compound
  Relative Bioluminescence (%): 98.10%

## CCn1ncc2c(NC3CCOCC3)c(CNC(=O)c3ccnn3C)c(C)nc21 [MMV026356]
2 µM compound
  Relative Bioluminescence (%): 76.21%
10 µM compound
  Relative Bioluminescence (%): 65.05%

## COc1cc(Br)cc2cc(C(=O)Nc3cccc(C(F)(F)F)c3)c(=O)oc12 [MMV688891]
2 µM compound
  Relative Bioluminescence (%): 75.74%
10 µM compound
  Relative Bioluminescence (%): 64.36%

## c1ccc(Oc2ccc(-c3cc(N4CCOCC4)n[nH]3)cc2)cc1 [MMV045105]
2 µM compound
  Relative Bioluminescence (%): 73.02%
10 µM compound
  Relative Bioluminescence (%): 44.11%

## O=C(Nc1nc(-c2ccccn2)cs1)c1cncn1-c1ccccc1 [MMV676512]
2 µM compound
  Relative Bioluminescence (%): 15.66%
10 µM compound
  Relative Bioluminescence (%): -0.58%

## Cc1cc(=O)[nH]c(-n2nc(C)cc2C)n1 [MMV393995]
2 µM compound
  Relative Bioluminescence (%): 27.43%
10 µM compound
  Relative Bioluminescence (%): 3.00%

## CC(=O)Oc1ccccc1C(=O)Nc1ncc([N+](=O)[O-])s1 [MMV688991, Nitazoxanide, reference compound]
2 µM compound
  viability at 2 µM: 71.1%
10 µM compound
  viability at 10 µM: 0.38%

## COc1cc(C2=NCCN2)cc2cc(-c3ccc(C4=NCCN4)cc3)oc12 [MMV688362]
2 µM compound
  Relative Bioluminescence (%): 95.50%
10 µM compound
  Relative Bioluminescence (%): 90.68%

## O=C(NCCc1c[nH]c2ccccc12)c1cc2ccccc2oc1=O [MMV676539]
2 µM compound
  Relative Bioluminescence (%): 54.78%
10 µM compound
  Relative Bioluminescence (%): 62.48%

## CC(C)NCC(=O)Nc1cccc(C(=O)Nc2cccc(C(F)(F)F)c2)c1 [MMV020165]
2 µM compound
  Relative Bioluminescence (%): 63.67%
10 µM compound
  Relative Bioluminescence (%): 61.89%

## CON=C(C(=O)OC)c1ccccc1CON=C(C)c1cccc(C(F)(F)F)c1 [MMV688754, Trifloxystrobin]
2 µM compound
  viability at 2 µM: 67.6%
10 µM compound
  viability at 10 µM: -1.92%

## CC1=Nc2ccc(Cl)cc2C(c2ccccc2)N1CCNC(=O)CN(C)C (stereo not drawn) [MMV688410]
2 µM compound
  Relative Bioluminescence (%): 114.60%
10 µM compound
  Relative Bioluminescence (%): 63.15%

## N#Cc1ccc(-c2ccc(OCC(N)=O)cc2)cc1 [MMV053220]
2 µM compound
  Relative Bioluminescence (%): 105.30%
10 µM compound
  Relative Bioluminescence (%): 82.56%

## O=C1O[C@@H](COc2ccon2)CN1c1cc(F)c(C2=CCN(Cc3ccccc3)CC2)c(F)c1 [MMV687813]
2 µM compound
  Relative Bioluminescence (%): 52.93%
10 µM compound
  Relative Bioluminescence (%): 58.34%

## c1ccc(Oc2ccc(-c3cc(C4CCOCC4)[nH]n3)cc2)cc1 [MMV687762]
2 µM compound
  Relative Bioluminescence (%): 41.49%
10 µM compound
  Relative Bioluminescence (%): 31.40%

## Nc1ncc(-c2ccc(C(F)(F)F)nc2)cc1-c1ccc(C(F)(F)F)nc1 [MMV668727]
2 µM compound
  Relative Bioluminescence (%): 68.46%
10 µM compound
  Relative Bioluminescence (%): 78.89%

## CS(=O)(=O)N1CCC(CCn2nc(Cc3cccc4ccccc34)c3c(N)ncnc32)CC1 [MMV688470]
2 µM compound
  Relative Bioluminescence (%): 96.68%
10 µM compound
  Relative Bioluminescence (%): 53.17%

## CC(C)(CN)c1nc(-c2ccc(Cl)c(O)c2)c(-c2ccnc(N)n2)[nH]1 [MMV030734]
2 µM compound
  Relative Bioluminescence (%): 80.21%
10 µM compound
  Relative Bioluminescence (%): 87.08%

## COC(=O)c1c(NC(=O)c2c(F)c(F)c(F)c(F)c2F)sc2c1CCCCC2 [MMV461553]
2 µM compound
  Relative Bioluminescence (%): 48.03%
10 µM compound
  Relative Bioluminescence (%): -0.44%

## CC(=O)Nc1ccc(-c2noc(CC3CCCN(Cc4cccc(F)c4C)C3)n2)cc1 (stereo not drawn) [MMV689061]
2 µM compound
  Relative Bioluminescence (%): 77.60%
10 µM compound
  Relative Bioluminescence (%): 95.91%

## COc1ccc(S(=O)(=O)Nc2ccc(CN3CCN(C(=O)c4cccc(C#N)c4)CC3)cc2)cc1 [MMV689029]
2 µM compound
  Relative Bioluminescence (%): 67.41%
10 µM compound
  Relative Bioluminescence (%): 57.59%

## Cc1nc(-c2ccccn2)nc(N(C)CCc2ccccc2)c1Cl [MMV658988]
2 µM compound
  Relative Bioluminescence (%): 32.93%
10 µM compound
  Relative Bioluminescence (%): -2.26%

## Cc1c[nH]c(CCNC(=O)c2cc(-c3ccc(Cl)cc3)cs2)n1 [MMV676350]
2 µM compound
  Relative Bioluminescence (%): 84.72%
10 µM compound
  Relative Bioluminescence (%): 104.94%

## CCOc1ccccc1C(=O)Nc1cccc(-c2nc3ncccn3c2C)c1 [MMV019790]
2 µM compound
  Relative Bioluminescence (%): 85.04%
10 µM compound
  Relative Bioluminescence (%): 56.75%

## Cc1cc(NC(=O)c2ccc(Oc3ccc(Cl)cc3O)o2)no1 [MMV688955]
2 µM compound
  Relative Bioluminescence (%): 95.96%
10 µM compound
  Relative Bioluminescence (%): 96.76%

## Cc1cc(C)n2nc(C(=O)Nc3cc(C(F)(F)F)ccc3N3CCOCC3)nc2n1 [MMV019087]
2 µM compound
  Relative Bioluminescence (%): 89.61%
10 µM compound
  Relative Bioluminescence (%): 89.32%

## CC(C)(C)n1nc(-c2ccccc2)c2c(N)ncnc21 [MMV688548]
2 µM compound
  Relative Bioluminescence (%): 78.88%
10 µM compound
  Relative Bioluminescence (%): 77.20%

## Cc1nc2ccccn2c1C(=O)NCc1ccc(Cl)cc1 [MMV012074]
2 µM compound
  Relative Bioluminescence (%): 98.27%
10 µM compound
  Relative Bioluminescence (%): 123.86%

## Cc1ccc2[nH]c(C3CCCNC3)c(-c3ccncc3)c2c1 (stereo not drawn) [MMV024311]
2 µM compound
  Relative Bioluminescence (%): 109.56%
10 µM compound
  Relative Bioluminescence (%): 88.36%

## COc1ccc(-c2nc(-c3cccc(NC(=O)Cc4ccc(F)cc4)c3)no2)cc1OC [MMV676571]
2 µM compound
  Relative Bioluminescence (%): 102.29%
10 µM compound
  Relative Bioluminescence (%): 85.94%

## CC(C(=O)N1CCCC1)N1CCN(S(=O)(=O)c2ccc(C(C)(C)C)cc2)CC1 (stereo not drawn) [MMV020291]
2 µM compound
  Relative Bioluminescence (%): 117.25%
10 µM compound
  Relative Bioluminescence (%): 111.14%

## Cc1ccc(C(=O)Nc2ccc(S(=O)(=O)O)c3cc(S(=O)(=O)O)cc(S(=O)(=O)O)c23)cc1NC(=O)c1cccc(NC(=O)Nc2cccc(C(=O)Nc3cc(C(=O)Nc4ccc(S(=O)(=O)O)c5cc(S(=O)(=O)O)cc(S(=O)(=O)O)c45)ccc3C)c2)c1 [MMV637953, Suramin, reference compound]
2 µM compound
  viability at 2 µM: 105%
10 µM compound
  viability at 10 µM: 117%

## c1ccc(Oc2ccc(-c3cc(CN4CCOCC4)[nH]n3)cc2)cc1 [MMV676161]
2 µM compound
  Relative Bioluminescence (%): 108.65%
10 µM compound
  Relative Bioluminescence (%): 116.07%
